# Laboratory results: ChEMBL document CHEMBL4800729 (2021)
# Legend:
# [1] = target: Glutamate NMDA receptor (Rattus norvegicus) (UniProt P35439+Q00959+Q00960+Q00961+Q62645+Q8VHN2+Q9R1M7); details: Compound concentration 10.0 uM
# [2] = target: Cytoplasmic tyrosine-protein kinase BMX (Homo sapiens) (UniProt P51813); assay: Bmx(h) Millipore kinase panel; details: Compound concentration 1.0 uM
# [3] = target: Serine/threonine-protein kinase 10 (Homo sapiens) (UniProt O94804); assay: LOK(h) Millipore kinase panel; details: Compound concentration 1.0 uM
# [4] = target: SRSF protein kinase 2 (Homo sapiens) (UniProt P78362); assay: SRPK2(h) Millipore kinase panel; details: Compound concentration 1.0 uM
# [5] = target: Calcium/calmodulin-dependent protein kinase type 1G (Homo sapiens) (UniProt Q96NX5); assay: CaMKIgamma(h) Millipore kinase panel; details: Compound concentration 1.0 uM
# [6] = target: Protein kinase C eta type (Homo sapiens) (UniProt P24723); assay: PKCeta(h) Millipore kinase panel; details: Compound concentration 1.0 uM
# [7] = target: Histamine H4 receptor (Homo sapiens) (UniProt Q9H3N8); details: Compound concentration 10.0 uM
# [8] = target: 5-hydroxytryptamine receptor 3A (Homo sapiens) (UniProt P46098); details: Compound concentration 10.0 uM
# [9] = target: GABA-A receptor; anion channel (Rattus norvegicus) (UniProt O09028+P15431+P18506+P18508+P19969+P20236+P23574+P23576+P28471+P28473+P30191+P62813+P63079+P63138+Q91ZM7+Q9ES14); details: Compound concentration 10.0 uM
# [10] = target: Serine/threonine-protein kinase tousled-like 2 (Homo sapiens) (UniProt Q86UE8); assay: TLK2(h) Millipore kinase panel; details: Compound concentration 1.0 uM
# [11] = target: MAP/microtubule affinity-regulating kinase 3 (Homo sapiens) (UniProt P27448); assay: MARK3(h) Millipore kinase panel; details: Compound concentration 1.0 uM
# [12] = target: Serine/threonine-protein kinase Nek1 (Homo sapiens) (UniProt Q96PY6); assay: NEK1(h) Millipore kinase panel; details: Compound concentration 1.0 uM
# [13] = target: Serine/threonine-protein kinase Nek9 (Homo sapiens) (UniProt Q8TD19); assay: NEK9(h) Millipore kinase panel; details: Compound concentration 1.0 uM
# [14] = target: Serine/threonine-protein kinase LATS1 (Homo sapiens) (UniProt O95835); assay: LATS1(h) Millipore kinase panel; details: Compound concentration 1.0 uM
# [15] = target: 5-hydroxytryptamine receptor 2B (Homo sapiens, UniProt P41595); assay: GPCRScan assay: inhibition of 5-HT2B; design: radioligand conc. used [nm] 1.0 – 2.0, parental cells stable HEK
# [16] = target: Vascular endothelial growth factor receptor 3 (Homo sapiens) (UniProt P35916); assay: Flt4(h) Millipore kinase panel; details: Compound concentration 1.0 uM
# [17] = target: Testis-specific serine/threonine-protein kinase 4 (Homo sapiens) (UniProt Q6SA08); assay: TSSK4(h) Millipore kinase panel; details: Compound concentration 1.0 uM
# [18] = target: Aurora kinase A (Homo sapiens) (UniProt O14965); assay: Aurora_A(h) Millipore kinase panel; details: Compound concentration 1.0 uM
# [19] = target: Tyrosine-protein kinase Tec (Homo sapiens) (UniProt P42680); assay: Tec(h) activated Millipore kinase panel; details: Compound concentration 1.0 uM
# [20] = target: Insulin-like growth factor 1 receptor (Homo sapiens) (UniProt P08069); assay: IGF-1R(h), activated Millipore kinase panel; details: Compound concentration 1.0 uM
# [21] = target: Death-associated protein kinase 1 (Homo sapiens) (UniProt P53355); assay: DAPK1(h) Millipore kinase panel; details: Compound concentration 1.0 uM
# [22] = target: Mitogen-activated protein kinase 1 (Homo sapiens) (UniProt P28482); assay: MAPK2(h) Millipore kinase panel; details: Compound concentration 1.0 uM
# [23] = target: Eukaryotic translation initiation factor 2-alpha kinase 1 (Homo sapiens) (UniProt Q9BQI3); assay: HRI(h) Millipore kinase panel; details: Compound concentration 1.0 uM
# [24] = target: Serine/threonine-protein kinase 24 (Homo sapiens) (UniProt Q9Y6E0); assay: MST3(h) Millipore kinase panel; details: Compound concentration 1.0 uM
# [25] = target: Phosphorylase b kinase gamma catalytic chain, testis/liver isoform (Homo sapiens) (UniProt P15735); assay: PhKgamma2(h) Millipore kinase panel; details: Compound concentration 1.0 uM
# [26] = target: Serine/threonine-protein kinase N1 (Homo sapiens) (UniProt Q16512); assay: PRK1(h) Millipore kinase panel; details: Compound concentration 1.0 uM
# [27] = target: Interferon-induced, double-stranded RNA-activated protein kinase (Homo sapiens) (UniProt P19525); assay: PKR(h) Millipore kinase panel; details: Compound concentration 1.0 uM
# [28] = target: SNF-related serine/threonine-protein kinase (Homo sapiens) (UniProt Q9NRH2); assay: SNRK(h) Millipore kinase panel; details: Compound concentration 1.0 uM
# [29] = target: Phosphatidylinositol 4-phosphate 5-kinase type-1 alpha (Homo sapiens) (UniProt Q99755); assay: PIP5K1a(h) Millipore kinase panel; details: Compound concentration 1.0 uM
# [30] = target: Tyrosine-protein kinase Lyn (Homo sapiens) (UniProt P07948); assay: Lyn(h) Millipore kinase panel; details: Compound concentration 1.0 uM
# [31] = target: Cyclin-dependent kinase 1/cyclin B (Homo sapiens) (UniProt P06493+P14635+Q8WWL7+O95067); assay: CDK1/cyclinB(h) Millipore kinase panel; format: protein-complex assay; details: Compound concentration 1.0 uM
# [32] = target: G protein-coupled receptor kinase 6 (Homo sapiens) (UniProt P43250); assay: GRK6(h) Millipore kinase panel; details: Compound concentration 1.0 uM
# [33] = target: Dual specificity mitogen-activated protein kinase kinase 1 (Homo sapiens) (UniProt Q02750); assay: MEK1(h) Millipore kinase panel; details: Compound concentration 1.0 uM
# [34] = target: Dual specificity tyrosine-phosphorylation-regulated kinase 1B (Homo sapiens) (UniProt Q9Y463); assay: DYRK1B(h) Millipore kinase panel; details: Compound concentration 1.0 uM
# [35] = target: SRSF protein kinase 1 (Homo sapiens) (UniProt Q96SB4); assay: SRPK1(h) Millipore kinase panel; details: Compound concentration 1.0 uM
# [36] = target: Estrogen receptor (Homo sapiens) (UniProt P03372); details: Compound concentration 10.0 uM
# [37] = target: Serine/threonine-protein kinase 32B (Homo sapiens) (UniProt Q9NY57); assay: STK32B(h) Millipore kinase panel; details: Compound concentration 1.0 uM
# [38] = target: cGMP-dependent protein kinase 1 (Homo sapiens) (UniProt Q13976); assay: PKG1alpha(h) Millipore kinase panel; details: Compound concentration 1.0 uM
# [39] = target: Beta-3 adrenergic receptor (Homo sapiens) (UniProt P13945); details: Compound concentration 10.0 uM
# [40] = target: NT-3 growth factor receptor (Homo sapiens) (UniProt Q16288); assay: TrkC(h) Millipore kinase panel; details: Compound concentration 1.0 uM
# [41] = target: Tyrosine-protein kinase ITK/TSK (Homo sapiens) (UniProt Q08881); assay: Itk(h) Millipore kinase panel; details: Compound concentration 1.0 uM
# [42] = target: Serine/threonine-protein kinase 32C (Homo sapiens) (UniProt Q86UX6); assay: STK32C(h) Millipore kinase panel; details: Compound concentration 1.0 uM
# [43] = target: D(2) dopamine receptor (Homo sapiens) (UniProt P14416); details: Compound concentration 10.0 uM
# [44] = target: Epithelial discoidin domain-containing receptor 1 (Homo sapiens) (UniProt Q08345); assay: DDR1(h) Millipore kinase panel; details: Compound concentration 1.0 uM
# [45] = target: Serine/threonine-protein kinase NLK (Homo sapiens) (UniProt Q9UBE8); assay: NLK(h) Millipore kinase panel; details: Compound concentration 1.0 uM
# [46] = target: Homeodomain-interacting protein kinase 1 (Homo sapiens) (UniProt Q86Z02); assay: HIPK1(h) Millipore kinase panel; details: Compound concentration 1.0 uM
# [47] = target: Adenosine receptor A1 (Homo sapiens) (UniProt P30542); details: Compound concentration 10.0 uM
# [48] = target: Mitogen-activated protein kinase 1 (Homo sapiens) (UniProt P28482); assay: MAPK1(h) Millipore kinase panel; details: Compound concentration 1.0 uM
# Mitogen-activated protein kinase 1 (Homo sapiens), sequence (P28482 whole entry): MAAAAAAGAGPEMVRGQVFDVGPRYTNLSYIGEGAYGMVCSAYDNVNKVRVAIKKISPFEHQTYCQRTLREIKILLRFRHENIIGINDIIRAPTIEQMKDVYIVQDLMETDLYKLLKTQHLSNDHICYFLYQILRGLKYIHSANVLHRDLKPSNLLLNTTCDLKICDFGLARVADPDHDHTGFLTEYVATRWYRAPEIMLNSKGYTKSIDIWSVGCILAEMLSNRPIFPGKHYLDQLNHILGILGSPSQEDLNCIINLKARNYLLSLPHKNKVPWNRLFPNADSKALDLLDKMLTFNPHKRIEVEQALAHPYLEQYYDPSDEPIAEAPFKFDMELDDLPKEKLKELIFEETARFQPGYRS
# Estrogen receptor (Homo sapiens), sequence (P03372 whole entry): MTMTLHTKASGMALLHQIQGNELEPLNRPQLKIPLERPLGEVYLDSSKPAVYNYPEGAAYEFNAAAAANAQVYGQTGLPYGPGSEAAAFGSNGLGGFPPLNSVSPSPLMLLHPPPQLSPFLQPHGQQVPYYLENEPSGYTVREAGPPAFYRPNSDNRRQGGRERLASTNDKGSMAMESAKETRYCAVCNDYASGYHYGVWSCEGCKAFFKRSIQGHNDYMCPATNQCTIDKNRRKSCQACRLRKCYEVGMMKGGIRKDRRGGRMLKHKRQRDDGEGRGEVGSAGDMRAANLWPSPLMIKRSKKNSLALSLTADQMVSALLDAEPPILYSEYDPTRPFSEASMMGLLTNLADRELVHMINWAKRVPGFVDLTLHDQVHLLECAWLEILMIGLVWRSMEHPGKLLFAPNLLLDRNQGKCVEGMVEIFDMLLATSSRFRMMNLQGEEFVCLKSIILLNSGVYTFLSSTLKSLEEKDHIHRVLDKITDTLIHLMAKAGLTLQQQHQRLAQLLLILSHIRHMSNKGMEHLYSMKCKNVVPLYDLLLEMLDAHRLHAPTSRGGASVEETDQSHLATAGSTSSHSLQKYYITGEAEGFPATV
# cGMP-dependent protein kinase 1 (Homo sapiens), sequence (Q13976 whole entry): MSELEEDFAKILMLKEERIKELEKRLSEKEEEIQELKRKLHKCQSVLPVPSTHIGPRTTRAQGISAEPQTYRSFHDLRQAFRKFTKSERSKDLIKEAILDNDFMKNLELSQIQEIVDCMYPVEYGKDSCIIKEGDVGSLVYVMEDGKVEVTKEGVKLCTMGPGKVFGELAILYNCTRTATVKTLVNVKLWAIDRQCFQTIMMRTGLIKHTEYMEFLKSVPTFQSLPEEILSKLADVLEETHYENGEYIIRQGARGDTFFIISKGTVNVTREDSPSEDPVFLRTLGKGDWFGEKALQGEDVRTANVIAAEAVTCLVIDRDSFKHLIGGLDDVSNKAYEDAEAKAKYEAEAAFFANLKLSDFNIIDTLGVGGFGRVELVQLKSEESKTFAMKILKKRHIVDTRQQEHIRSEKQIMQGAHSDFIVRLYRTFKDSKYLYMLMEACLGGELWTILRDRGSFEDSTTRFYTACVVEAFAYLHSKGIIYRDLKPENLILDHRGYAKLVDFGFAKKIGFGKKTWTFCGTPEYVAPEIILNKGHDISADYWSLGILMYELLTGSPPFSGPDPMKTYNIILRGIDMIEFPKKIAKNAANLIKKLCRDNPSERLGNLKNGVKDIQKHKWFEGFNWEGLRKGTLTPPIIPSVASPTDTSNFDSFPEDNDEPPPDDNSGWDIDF
# 5-hydroxytryptamine receptor 3A (Homo sapiens), sequence (P46098 whole entry): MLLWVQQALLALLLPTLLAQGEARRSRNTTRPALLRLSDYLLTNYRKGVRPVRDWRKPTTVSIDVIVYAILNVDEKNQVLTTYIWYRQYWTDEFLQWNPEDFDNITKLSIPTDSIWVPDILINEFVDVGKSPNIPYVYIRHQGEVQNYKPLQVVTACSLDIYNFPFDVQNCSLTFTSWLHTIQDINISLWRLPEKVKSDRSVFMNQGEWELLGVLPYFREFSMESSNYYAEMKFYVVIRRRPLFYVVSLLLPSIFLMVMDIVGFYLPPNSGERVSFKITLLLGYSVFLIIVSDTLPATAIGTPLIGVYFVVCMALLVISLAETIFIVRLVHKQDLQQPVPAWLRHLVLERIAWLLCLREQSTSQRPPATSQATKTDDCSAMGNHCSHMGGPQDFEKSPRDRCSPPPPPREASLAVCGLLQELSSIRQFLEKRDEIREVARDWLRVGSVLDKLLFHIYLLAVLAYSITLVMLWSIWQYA
# Dual specificity tyrosine-phosphorylation-regulated kinase 1B (Homo sapiens), sequence (Q9Y463 whole entry, looked up): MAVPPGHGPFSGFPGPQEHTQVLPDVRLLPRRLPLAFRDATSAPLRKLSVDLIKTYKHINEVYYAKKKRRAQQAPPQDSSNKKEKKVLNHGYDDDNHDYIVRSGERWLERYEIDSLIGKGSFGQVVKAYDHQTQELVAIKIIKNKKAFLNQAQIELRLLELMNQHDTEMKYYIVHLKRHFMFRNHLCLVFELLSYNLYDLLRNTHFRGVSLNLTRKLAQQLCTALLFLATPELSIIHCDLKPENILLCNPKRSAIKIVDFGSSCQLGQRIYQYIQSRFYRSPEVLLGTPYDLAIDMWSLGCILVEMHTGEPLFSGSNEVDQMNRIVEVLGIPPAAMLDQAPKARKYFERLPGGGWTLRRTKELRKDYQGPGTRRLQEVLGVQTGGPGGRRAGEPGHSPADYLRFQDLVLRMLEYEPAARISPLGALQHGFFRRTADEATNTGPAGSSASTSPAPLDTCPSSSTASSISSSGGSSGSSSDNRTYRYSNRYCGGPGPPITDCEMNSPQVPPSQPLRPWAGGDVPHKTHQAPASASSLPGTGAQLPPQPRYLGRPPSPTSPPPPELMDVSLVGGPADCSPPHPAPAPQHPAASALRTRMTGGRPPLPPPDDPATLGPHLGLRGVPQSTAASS
# Serine/threonine-protein kinase 10 (Homo sapiens), sequence (O94804 whole entry, looked up): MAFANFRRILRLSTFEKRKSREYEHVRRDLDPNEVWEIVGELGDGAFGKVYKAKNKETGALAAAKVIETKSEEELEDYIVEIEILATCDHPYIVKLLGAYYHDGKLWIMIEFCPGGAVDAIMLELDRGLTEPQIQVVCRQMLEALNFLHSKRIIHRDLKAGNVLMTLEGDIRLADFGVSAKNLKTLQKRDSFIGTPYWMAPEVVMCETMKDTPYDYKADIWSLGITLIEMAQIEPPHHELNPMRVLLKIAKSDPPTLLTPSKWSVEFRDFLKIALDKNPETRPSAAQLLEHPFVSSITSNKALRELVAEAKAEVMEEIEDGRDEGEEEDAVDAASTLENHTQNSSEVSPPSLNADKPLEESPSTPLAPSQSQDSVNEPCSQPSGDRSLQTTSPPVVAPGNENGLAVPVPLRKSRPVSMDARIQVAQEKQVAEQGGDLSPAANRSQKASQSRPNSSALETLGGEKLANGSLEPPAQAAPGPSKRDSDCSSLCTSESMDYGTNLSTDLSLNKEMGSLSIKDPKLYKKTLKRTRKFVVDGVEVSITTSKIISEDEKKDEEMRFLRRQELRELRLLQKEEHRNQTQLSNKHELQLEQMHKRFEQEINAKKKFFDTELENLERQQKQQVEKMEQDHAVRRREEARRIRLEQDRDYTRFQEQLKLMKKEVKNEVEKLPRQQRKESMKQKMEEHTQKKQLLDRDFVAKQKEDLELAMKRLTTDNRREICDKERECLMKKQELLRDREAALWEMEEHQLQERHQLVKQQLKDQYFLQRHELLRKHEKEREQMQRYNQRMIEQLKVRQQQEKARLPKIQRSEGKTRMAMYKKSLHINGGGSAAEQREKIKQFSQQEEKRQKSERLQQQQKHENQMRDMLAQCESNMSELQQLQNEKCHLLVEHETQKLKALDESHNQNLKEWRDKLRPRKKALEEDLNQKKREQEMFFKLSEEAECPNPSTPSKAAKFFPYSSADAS
# Aurora kinase A (Homo sapiens), sequence (O14965 whole entry): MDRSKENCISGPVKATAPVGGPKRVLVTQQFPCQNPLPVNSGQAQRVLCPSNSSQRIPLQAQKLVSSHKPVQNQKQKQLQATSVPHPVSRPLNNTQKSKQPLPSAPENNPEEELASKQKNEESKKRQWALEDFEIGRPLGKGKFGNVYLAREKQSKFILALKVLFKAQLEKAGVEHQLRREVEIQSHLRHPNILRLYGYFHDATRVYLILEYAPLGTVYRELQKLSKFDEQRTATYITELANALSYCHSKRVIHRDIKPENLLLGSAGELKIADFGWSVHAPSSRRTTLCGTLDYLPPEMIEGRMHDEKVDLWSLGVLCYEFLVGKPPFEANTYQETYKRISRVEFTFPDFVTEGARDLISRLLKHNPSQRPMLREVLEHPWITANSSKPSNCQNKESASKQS
# MAP/microtubule affinity-regulating kinase 3 (Homo sapiens), sequence (P27448 whole entry, looked up): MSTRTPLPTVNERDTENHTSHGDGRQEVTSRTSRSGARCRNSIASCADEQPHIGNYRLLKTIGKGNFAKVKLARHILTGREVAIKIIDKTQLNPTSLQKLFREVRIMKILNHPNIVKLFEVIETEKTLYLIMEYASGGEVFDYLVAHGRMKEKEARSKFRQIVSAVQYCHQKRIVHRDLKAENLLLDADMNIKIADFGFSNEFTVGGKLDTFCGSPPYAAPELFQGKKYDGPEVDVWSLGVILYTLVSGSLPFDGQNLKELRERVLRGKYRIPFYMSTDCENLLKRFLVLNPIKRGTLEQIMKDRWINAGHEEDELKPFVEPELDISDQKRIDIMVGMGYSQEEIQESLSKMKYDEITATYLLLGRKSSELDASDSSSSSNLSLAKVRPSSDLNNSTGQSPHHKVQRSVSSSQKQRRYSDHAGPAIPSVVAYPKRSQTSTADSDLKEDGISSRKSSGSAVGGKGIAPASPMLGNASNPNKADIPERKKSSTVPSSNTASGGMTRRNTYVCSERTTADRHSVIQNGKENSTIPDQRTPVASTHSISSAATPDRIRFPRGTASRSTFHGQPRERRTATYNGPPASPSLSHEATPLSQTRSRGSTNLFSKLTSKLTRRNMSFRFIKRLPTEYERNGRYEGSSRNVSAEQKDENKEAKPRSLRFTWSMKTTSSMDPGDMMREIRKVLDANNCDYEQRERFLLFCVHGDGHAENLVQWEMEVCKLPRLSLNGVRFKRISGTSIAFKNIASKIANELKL
structure (smiles),measurement,setting,value
CC[C@@H](Nc1c(C#N)c(-c2ccc(-c3cccc(C)c3F)cc2)nc2cnccc12)C(=O)O [BAY-091],inhibition,[1],-1%
same,inhibition,[2],3.69%
same,inhibition,[3],8.13%
same,inhibition,[4],-8.51%
same,inhibition,[5],14.4%
same,inhibition,[6],3.77%
same,inhibition,[7],15.8%
same,inhibition,[8],7.39%
same,inhibition,[9],29.9%
same,inhibition,[10],8.27%
same,inhibition,[11],-4.67%
same,inhibition,[12],24.4%
same,inhibition,[13],6.61%
same,inhibition,[14],8.31%
same,Ki,[15],1.5 µM
same,inhibition,[16],12.9%
same,inhibition,[17],24%
same,inhibition,[18],13.8%
same,inhibition,[19],4.62%
same,inhibition,[20],12%
same,inhibition,[21],-3.29%
same,inhibition,[22],7.74%
same,inhibition,[23],-6.26%
same,inhibition,[24],1.03%
same,inhibition,[25],-0.34%
same,inhibition,[26],5.64%
same,inhibition,[27],13.9%
same,inhibition,[28],10.3%
same,inhibition,[29],10%
same,inhibition,[30],12.5%
same,inhibition,[31],8.82%
same,inhibition,[32],0.16%
same,inhibition,[33],21.5%
same,inhibition,[34],12.1%
same,inhibition,[35],3.4%
same,inhibition,[36],10%
same,inhibition,[37],14.9%
same,inhibition,[38],6.77%
same,inhibition,[39],16%
same,inhibition,[40],14.8%
same,inhibition,[41],9.18%
same,inhibition,[42],5.49%
same,inhibition,[43],13.8%
same,inhibition,[44],11.7%
same,inhibition,[45],8.59%
same,inhibition,[46],3.6%
same,inhibition,[47],13%
same,inhibition,[48],6.43%
